From patent US20050272752A1, “Complexes of E-2-Methoxy-N-(3-{4-[3-methyl-4-(6-methyl-pyridin-3-yloxy)-phenylamino]-quinazolin-6-yl}-allyl)-acetamide and methods of preparing same” (Pfizer Inc, priority 2004, published 2005)

Assays:
[1] = tested on: another carcinoma which does not express the EGF receptor; details: cited from earlier work
[2] = tested on: transplanted human mammary carcinoma which expresses epidermal growth factor receptor tyrosine kinase (EGFR); details: EGFR-expressing carcinoma in athymic nude mice; cited from earlier work
[3] = hygroscopic stability of the sesquisuccinate complex; assay type: physicochemical; details: solid complex; relevant to weight changes during manufacture of capsules or tablets

hygroscopic stability [3] | SMILES | growth of carcinoma not expressing the EGF receptor [1] | growth of transplanted human mammary carcinoma [2]
– | O=CN/C=C/c1cc(O)ccc1O [erbstatin] | without effect on the growth | selectively attenuates the growth
substantially hygroscopically stable | COCC(=O)NC/C=C/c1ccc2ncnc(Nc3ccc(Oc4ccc(C)nc4)c(C)c3)c2c1 [sesquisuccinate complex, E-2-Methoxy-N-(3-{4-[3-methyl-4-(6-methyl-pyridin-3-yloxy)-phenylamino]-quinazolin-6-yl}-allyl)-acetamide] | – | –
